For this assay, the target named is T1, Recombinant Human EphA2 Fc Protein (Homo sapiens, UniProt P29317).
T1 construct: purchased Elabscience
The experiment in a line: SPR interaction analysis (Biacore T200), kinetics of peptides against EphA2. The assay is classed as binding. Particulars: Recombinant Human EphA2 Fc Protein captured by Human Antibody Capture kit; single-cycle kinetics; 25° C.; HBS-P+ buffer with 1% DMSO. The gist of the method: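 On a Biacore T200 at 25° C, Fc-tagged human EphA2 was captured via anti-human antibody; peptides ran as five serial dilutions in HBS-P+ pH 7.4 with 1% DMSO by single-cycle kinetics. Baseline-subtracted data fitted for ka and kd, from which KD was derived.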

Molecules are shown by their SMILES. Numbered stars: 1 amine (or outer) side, 2 acyl side, 3 side chain; on linkers, the order of the positions; unused ones are H or OH. Bridge positions count the residues as written; N and C are the ends. Square brackets hold non-standard residues; d marks the D form. Side chains are listed from the residue outwards. Peptide text beside a SMILES is read from it. * marks the point of attachment. NH(1-deoxy-D-glucityl) = OC[C@@H](O)[C@@H](O)[C@H](O)[C@@H](O)CN*; Trp(1-Me,7-Cl) = Cn1cc(C[C@H](N)C(=O)O)c2cccc(Cl)c21; Ala(2-NH2-4-pyridyl) = Nc1cc(C[C@H](N)C(=O)O)ccn1; dPhe(3-CONH2) = NC(=O)c1cccc(C[C@@H](N)C(=O)O)c1; X3 = CN([C@@H](Cc1ccnc(N)c1)C(=O)[*:2])[*:1]; Piperazinyl(4-CH2COOH) = O=C(O)CN1CCN(*)CC1; Trp(1-Me) = Cn1cc(C[C@H](N)C(=O)O)c2ccccc21; NMemTyr = CN[C@@H](Cc1cccc(O)c1)C(=O)O; NMehCit = CN[C@@H](CCCCNC(N)=O)C(=O)O; NMe3Pal = CN[C@@H](Cc1cccnc1)C(=O)O; NMeF = CN[C@@H](Cc1ccccc1)C(=O)O; hCit = NC(=O)NCCCC[C@H](N)C(=O)O; Gly(cBu) = N[C@H](C(=O)O)C1CCC1; NMeE = CN[C@@H](CCC(=O)O)C(=O)O; Aad = N[C@@H](CCCC(=O)O)C(=O)O; Cit = NC(=O)NCCC[C@H](N)C(=O)O; Pen = CC(C)(S)[C@H](N)C(=O)O; NMeA = CN[C@@H](C)C(=O)O; CO = O=C([*:1])[*:2]

With `CC(C)C[C@@H]1NC(=O)[C@H](CC(N)=O)NC(=O)[C@H](Cc2ccccc2)N(C)C(=O)[C@@H](Cc2cccc(C(N)=O)c2)NC(=O)CSC[C@@H](C(N)=O)NC(=O)[C@H](CC(N)=O)NC(=O)[C@H]([C@@H](C)O)NC(=O)[C@H](Cc2cn(C)c3ccccc23)NC(=O)[C@H](CCCNC(N)=O)NC(=O)[C@H](Cc2cn(C)c3c(Cl)cccc23)NC(=O)[C@H](CCC(=O)O)N(C)C(=O)[C@H](CC(N)=O)NC1=O` [PDC_EphA2-00026426, df3CON-Me3Py-N-L-N-MeN-W1Me7Cl-Cit-W1Me-T-N-C-NH2] ({CH2CO}-[dPhe(3-CONH2)][NMeF]NLN[NMeE][Trp(1-Me,7-Cl)][Cit][Trp(1-Me)]TNC-NH2; thioether N-12), the Kd is less than 1 nM.
For `CC(C)C[C@@H]1NC(=O)[C@H](Cc2ccnc(N)c2)NC(=O)[C@H](Cc2ccccc2)NC(=O)CSC[C@@H](C(N)=O)NC(=O)[C@H](Cc2cn(C)c3ccccc23)NC(=O)[C@H](Cc2ccccc2)N(C)C(=O)[C@H](Cc2cn(C)c3ccccc23)NC(=O)[C@H](C)N(C)C1=O` [PDC_EphA2-00026479, F-4Py2NH2-L-MeA-W1Me-MeF-W1Me-C-NH2] ({CH2CO}-F[Ala(2-NH2-4-pyridyl)]L[NMeA][Trp(1-Me)][NMeF][Trp(1-Me)]C-NH2; thioether N-8) the value was 100 to 400 nM; for `CC(C)C[C@@H]1NC(=O)[C@H](Cc2ccnc(N)c2)NC(=O)[C@H](Cc2ccccc2)NC(=O)CSC[C@@H](C(N)=O)NC(=O)[C@H](Cc2cn(C)c3ccccc23)NC(=O)[C@H](Cc2ccccc2)N(C)C(=O)[C@H](Cc2cn(C)c3ccccc23)NC(=O)[C@H](CCCCNC(N)=O)N(C)C1=O` [PDC_EphA2-00026481, F-4Py2NH2-L-MeHcit-W1Me-MeF-W1Me-C-NH2] ({CH2CO}-F[Ala(2-NH2-4-pyridyl)]L[NMehCit][Trp(1-Me)][NMeF][Trp(1-Me)]C-NH2; thioether N-8), 100 to 400 nM.
Under `CC(C)C[C@@H]1NC(=O)[C@H](CC(N)=O)NC(=O)[C@H](Cc2cccnc2)N(C)C(=O)[C@@H](Cc2cccc(C(N)=O)c2)NC(=O)CSC[C@@H](C(N)=O)NC(=O)[C@H](Cc2cn(C)c3ccccc23)NC(=O)[C@H](CCCCNC(N)=O)NC(=O)[C@H](Cc2cn(C)c3c(Cl)cccc23)NC(=O)[C@H](Cc2ccccc2)N(C)C(=O)[C@H](CO)NC1=O` [PDC_EphA2-00026600, df3CON-Me3Py-N-L-S-MeF-W1Me7Cl-Hcit-W1Me-C-NH2] ({CH2CO}-[dPhe(3-CONH2)][NMe3Pal]NLS[NMeF][Trp(1-Me,7-Cl)][hCit][Trp(1-Me)]C-NH2; thioether N-10) stands 1 to 10 nM; under `CC(C)C[C@@H]1NC(=O)[C@H](CC(N)=O)NC(=O)[C@H](Cc2cccnc2)N(C)C(=O)[C@@H](Cc2cccc(C(N)=O)c2)NC(=O)CSC[C@@H](C(N)=O)NC(=O)[C@H](Cc2cn(C)c3ccccc23)NC(=O)[C@H](CCCCNC(N)=O)NC(=O)[C@H](Cc2cn(C)c3c(Cl)cccc23)NC(=O)[C@H](Cc2cccnc2)N(C)C(=O)[C@H](CO)NC1=O` [PDC_EphA2-00026601, df3CON-Me3Py-N-L-S-Me3Py-W1Me7Cl-Hcit-W1Me-C-NH2] ({CH2CO}-[dPhe(3-CONH2)][NMe3Pal]NLS[NMe3Pal][Trp(1-Me,7-Cl)][hCit][Trp(1-Me)]C-NH2; thioether N-10), 1 to 10 nM.
Under `CN1C(=O)[C@H](CO)NC(=O)[C@H](C2CCC2)NC(=O)[C@H](CC(N)=O)NC(=O)[C@H](Cc2cccnc2)N(C)C(=O)[C@@H](Cc2cccc(C(N)=O)c2)NC(=O)CSC[C@@H](C(N)=O)NC(=O)[C@H](Cc2cn(C)c3ccccc23)NC(=O)[C@H](CCCCNC(N)=O)NC(=O)[C@H](Cc2cn(C)c3c(Cl)cccc23)NC(=O)[C@@H]1Cc1cccnc1` [PDC_EphA2-00026602, df3CON-Me3Py-N-Cbg-S-Me3Py-W1Me7Cl-Hcit-W1Me-C-NH2] ({CH2CO}-[dPhe(3-CONH2)][NMe3Pal]N[Gly(cBu)]S[NMe3Pal][Trp(1-Me,7-Cl)][hCit][Trp(1-Me)]C-NH2; thioether N-10) stands less than 1 nM; under `CN1C(=O)[C@H](CCC(=O)NC[C@H](O)[C@@H](O)[C@H](O)[C@H](O)CO)NC(=O)[C@H](C2CCC2)NC(=O)[C@H](CC(N)=O)NC(=O)[C@H](Cc2cccnc2)N(C)C(=O)[C@@H](Cc2cccc(C(N)=O)c2)NC(=O)CSC[C@@H](C(N)=O)NC(=O)[C@H](Cc2cn(C)c3ccccc23)NC(=O)[C@H](CCCCNC(=O)N2CCN(CC(=O)O)CC2)NC(=O)[C@H](Cc2cn(C)c3c(Cl)cccc23)NC(=O)[C@@H]1Cc1cccnc1` [PDC_EphA2-00026603, df3CON-Me3Py-N-Cbg-Qglucamine-Me3Py-W1Me7Cl-KCOpipzaa-W1Me-C-NH2] ({CH2CO}-[dPhe(3-CONH2)][NMe3Pal]N[Gly(cBu)]E(NH(1-deoxy-D-glucityl))[NMe3Pal][Trp(1-Me,7-Cl)]K([CO-Piperazinyl(4-CH2COOH)])[Trp(1-Me)]C-NH2; thioether N-10), less than 1 nM.
Consider `CN1C(=O)[C@H](CCC(=O)NC[C@H](O)[C@@H](O)[C@H](O)[C@H](O)CO)NC(=O)[C@H](C2CCC2)NC(=O)[C@H](CC(N)=O)NC(=O)[C@H](Cc2cccnc2)N(C)C(=O)[C@@H](Cc2cccc(C(N)=O)c2)NC(=O)CSC[C@@H](C(N)=O)NC(=O)[C@H](Cc2cn(C)c3ccccc23)NC(=O)[C@H](CCC(=O)NC[C@H](O)[C@@H](O)[C@H](O)[C@H](O)CO)NC(=O)[C@H](Cc2cn(C)c3c(Cl)cccc23)NC(=O)[C@@H]1Cc1cccnc1` [PDC_EphA2-00026604, df3CON-Me3Py-N-Cbg-Qglucamine-Me3Py-W1Me7Cl-Qglucamine-W1Me-C-NH2] ({CH2CO}-[dPhe(3-CONH2)][NMe3Pal]N[Gly(cBu)]E(NH(1-deoxy-D-glucityl))[NMe3Pal][Trp(1-Me,7-Cl)]E(NH(1-deoxy-D-glucityl))[Trp(1-Me)]C-NH2; thioether N-10), for which the dissociation constant Kd was less than 1 nM.
Under `CN1C(=O)[C@H](CCC(=O)NC[C@H](O)[C@@H](O)[C@H](O)[C@H](O)CO)NC(=O)[C@H](C2CCC2)NC(=O)[C@H](CC(N)=O)NC(=O)[C@H](Cc2ccnc(N)c2)N(C)C(=O)[C@@H](Cc2cccc(C(N)=O)c2)NC(=O)CSC[C@@H](C(N)=O)NC(=O)[C@H](Cc2cn(C)c3ccccc23)NC(=O)[C@H](CCCCNC(=O)N2CCN(CC(=O)O)CC2)NC(=O)[C@H](Cc2cn(C)c3c(Cl)cccc23)NC(=O)[C@@H]1Cc1cccnc1` [PDC_EphA2-00026605, df3CON-Me4Py2NH2-N-Cbg-Qglucamine-Me3Py-W1Me7Cl-KCOpipzaa-W1Me-C-NH2] ({CH2CO}-[dPhe(3-CONH2)][X3]N[Gly(cBu)]E(NH(1-deoxy-D-glucityl))[NMe3Pal][Trp(1-Me,7-Cl)]K([CO-Piperazinyl(4-CH2COOH)])[Trp(1-Me)]C-NH2; thioether N-10) stands 1 to 10 nM; under `CN1C(=O)[C@H](CCCC(N)=O)NC(=O)[C@H](C2CCC2)NC(=O)[C@H](CC(N)=O)NC(=O)[C@H](Cc2cccnc2)N(C)C(=O)[C@@H](Cc2cccc(C(N)=O)c2)NC(=O)CSC[C@@H](C(N)=O)NC(=O)[C@H](Cc2cn(C)c3ccccc23)NC(=O)[C@H](CCCCNC(=O)N2CCN(CC(=O)O)CC2)NC(=O)[C@H](Cc2cn(C)c3c(Cl)cccc23)NC(=O)[C@@H]1CCC(=O)O` [PDC_EphA2-00026606, df3CON-Me3Py-N-Cbg-Hgn-MeE-W1Me7Cl-KCOpipzaa-W1Me-C-NH2] ({CH2CO}-[dPhe(3-CONH2)][NMe3Pal]N[Gly(cBu)][Aad](NH2)[NMeE][Trp(1-Me,7-Cl)]K([CO-Piperazinyl(4-CH2COOH)])[Trp(1-Me)]C-NH2; thioether N-10), less than 1 nM; under `CN1C(=O)[C@H](CCC(=O)NC[C@H](O)[C@@H](O)[C@H](O)[C@H](O)CO)NC(=O)[C@H](C2CCC2)NC(=O)[C@H](CC(N)=O)NC(=O)[C@H](Cc2cccnc2)N(C)C(=O)[C@@H](Cc2cccc(C(N)=O)c2)NC(=O)CSC[C@@H](C(N)=O)NC(=O)[C@H](Cc2cn(C)c3ccccc23)NC(=O)[C@H](CCCCNC(N)=O)NC(=O)[C@H](Cc2cn(C)c3c(Cl)cccc23)NC(=O)[C@@H]1CCC(=O)O` [PDC_EphA2-00026607, df3CON-Me3Py-N-Cbg-Qglucamine-MeE-W1Me7Cl-Hcit-W1Me-C-NH2] ({CH2CO}-[dPhe(3-CONH2)][NMe3Pal]N[Gly(cBu)]E(NH(1-deoxy-D-glucityl))[NMeE][Trp(1-Me,7-Cl)][hCit][Trp(1-Me)]C-NH2; thioether N-10), less than 1 nM.
Regarding `CN1C(=O)[C@H](CCCC(N)=O)NC(=O)[C@H](C2CCC2)NC(=O)[C@H](CC(N)=O)NC(=O)[C@H](Cc2cccc(O)c2)N(C)C(=O)[C@@H](Cc2cccc(C(N)=O)c2)NC(=O)CSC[C@@H](C(N)=O)NC(=O)[C@H](Cc2cn(C)c3ccccc23)NC(=O)[C@H](CCCCNC(=O)N2CCN(CC(=O)O)CC2)NC(=O)[C@H](Cc2cn(C)c3c(Cl)cccc23)NC(=O)[C@@H]1CCC(=O)O` [PDC_EphA2-00026608, df3CON-MeF3H-N-Cbg-Hgn-MeE-W1Me7Cl-KCOpipzaa-W1Me-C-NH2] ({CH2CO}-[dPhe(3-CONH2)][NMemTyr]N[Gly(cBu)][Aad](NH2)[NMeE][Trp(1-Me,7-Cl)]K([CO-Piperazinyl(4-CH2COOH)])[Trp(1-Me)]C-NH2; thioether N-10), the Kd was less than 1 nM.
For `CN1C(=O)[C@H](CCCC(N)=O)NC(=O)[C@H](C2CCC2)NC(=O)[C@H](CC(N)=O)NC(=O)[C@H](Cc2cccnc2)N(C)C(=O)[C@@H](Cc2cccc(C(N)=O)c2)NC(=O)CSC(C)(C)[C@@H](C(N)=O)NC(=O)[C@H](Cc2cn(C)c3ccccc23)NC(=O)[C@H](CCCCNC(=O)N2CCN(CC(=O)O)CC2)NC(=O)[C@H](Cc2cn(C)c3c(Cl)cccc23)NC(=O)[C@@H]1CCC(=O)O` [PDC_EphA2-00026609, df3CON-Me3Py-N-Cbg-Hgn-MeE-W1Me7Cl-KCOpipzaa-W1Me-CdMe-NH2] ({CH2CO}-[dPhe(3-CONH2)][NMe3Pal]N[Gly(cBu)][Aad](NH2)[NMeE][Trp(1-Me,7-Cl)]K([CO-Piperazinyl(4-CH2COOH)])[Trp(1-Me)][Pen]-NH2; thioether N-10), the Kd was 1 to 10 nM.
